Data: US12570603B2, “FABP4/5 inhibitors, methods of use and methods of making” (Novius Therapeutics, LLC, priority 2021, dated 2026)

Key:
[1] = system: MB-231 shC and shF5 cells; experiment: Proliferation assay, MB-231 lines expressing control shRNA (shC) or FABP5 shRNA (shF5); type: cell-based; details: MB-231 shC vs shF5, different concentrations
Protocol: (§1) 2000 cells were plated in each well of 96-well plate. The next day cells were treated with compounds and incubated in Incucyte for 4 days. Images taken every 4 hours for the duration of the time were analyzed to calculate percentage of confluency in response to the treatments. Growth inhibition was calculated as 1−(percentage of viable cells out of untreated cells).

[2] = system: PPARδ targets PDPK1 and CD47 in TNBC cells MB-231; experiment: Real-time PCR of PPARδ targets; type: cell-based; details: MB-231, 1 μM, 6 hours
Protocol: (§2) Cells were treated with a compound for 6 h. then lysed and RNA was extracted using Trizol, according to the manufacturer's instructions. cDNA was generated using GeneAmp RNA PCR (Applied Biosystems). qPCR was carried out using TaqMan chemistry and Assays-on-Demand probes (Applied Biosystems). 18s (4352930) rRNA was used for normalization. Relative expression was calculated as 2^−ΔΔCT.

[3] = system: 3T3-L1 adipocytes; experiment: Lipolysis (glycerol release) in mature adipocytes; type: cell-based, mouse
Protocol: (§3) 3) 3T3-L1: Mouse 3T3-L1 cells were differentiated in culture according to ATCC protocol to become mature adipocytes. At day 6 of the differentiation, compound treatment started. Cells were stained by Nile Red on day and color intensity in each cell was measured relative to Dapi staining. Lipolysis was measured by measuring glycerol levels using lipolysis kit (Cayman, USA) according to the manufacturer manual.
as §3, with “1)” for “3)”

[4] = system: TNBC lines and MCF7; experiment: Proliferation assay in multiple TNBC lines and MCF7, MB-231 shF5 as control; type: cell-based
Protocol: as §1

[5] = system: BT-549 cells; experiment: Proliferation assay, combination with chemotherapy; type: cell-based, human; details: B4 1 μM with doxorubicin 0 to 100 nM
Protocol: as §1

[6] = system: HepG2 cells; experiment: Lipid uptake assay, oleic acid, Nile Red (steatosis model); type: cell-based, human; details: OA 1 mM
Protocol: 2) Hepg2 cells: 5000 cells were plated in 96-well plate. The next day cells were treated with tested compounds for 4 hours and then treated with 1 mM oleic acid for additional 24 hours. Cells were then stained with Nile Red and Dapi and lipid content was quantified using Cytation5 (Agilent).
2) Hepg2 cells: 5000 cells were plated in 96-well plate. The next day cells were treated with tested compounds for 4 hours and then treated with 1 mM oleic acid for additional 24 hours. Cells were then stained with Nile Red and Dapi and lipid content was quantified.

[7] = system: PPARγ; experiment: Transactivation assay, PPRE luciferase reporter in COS-7 cells; type: cell-based; details: tested against rosiglitazone, FIG. 4
Protocol: (§4) COS-7 were cultured in 6-well plates and co-transfected with either a luciferase reporter driven by 3 copies of a PPRE and expression vector for either PPARδ, PPARα or PPARγ together with a vector harboring cDNA for β-galactosidase, serving as a transfection control. To test whether FABP4 or FABP5 mediate activation of their cognate receptors PPARγ and PPARδ, respectively, cells were also co-transfected with a plasmid harboring sequence of either FABP4 or FABP5. 18 h post-transfection, cells were placed in a serum-free medium and treated with agonist/compound. 18 h. later, cells were lysed, luciferase activity was assayed (Promega, WI, USA) and corrected for transfection efficiency by the activity of β-galactosidase.
(§5) COS-7 were cultured in 6-well plates and co-transfected with either a luciferase reporter driven by 3 copies of a PPRE and expression vector for either PPARδ, PPARα or PPARγ together with a vector harboring cDNA for β-galactosidase, serving as a transfection control. 18 h. post-transfection, cells were placed in a serum-free medium and treated with agonist/compound. 18 h. later, cells were lysed, luciferase activity was assayed (Promega, WI, USA) and corrected for transfection efficiency by the activity of β-galactosidase.

[8] = system: PPARδ; experiment: as above; type: cell-based; details: compared to GW0742, FIG. 5
Protocol: as §4, §5

[9] = system: RAW264.7 murine macrophage cells; experiment: LPS-stimulated proinflammatory cytokine expression by QPCR; type: cell-based; details: B4 0 to 5 μM, then LPS 100 ng/ml
Protocol: as §2
FIG. 33, FIG. 34, and FIG. 35 show the anti-inflammatory effects of compound B4 on RAW264.7 murine macrophage cells.

[10] = system: FABP4 together with PPARγ; experiment: Transcriptional activation assay in cells overexpressing FABP4, with PPARγ activator rosiglitazone; type: cell-based; details: FIG. 7
Protocol: as §4

[11] = system: LX-2 cells; experiment: Hepatic stellate cells activation assay (αSMA after TGF-β); type: cell-based, human; details: B4 0.1 to 5 μM versus untreated cells
Protocol: LX-2 cells were treated with compound for 6 h. then stimulated with TGF-β ([…]) for additional 24 h. Cells were fixed with 4% paraformaldehyde and immununostained with the fibrosis marker αSMA. Nuclei were stained with Dapi. Images and quantification of positive cells was done using Cytation5 (Agilent).

[12] = system: FABP5 together with PPARδ; experiment: Transcriptional activation assay in cells overexpressing FABP5, with PPARδ activator GW0742; type: cell-based; details: together with GW0742, FIG. 8
Protocol: as §4

[13] = Level of B4 in serum and tissues after IP injection or oral gavage; type: in vivo, mice
Protocol: Male CD-1 mice (n=3) were treated with B4 either by IP injections (5 mg/kg) or by oral gavage (10 mg/kg). At times, 3, 6, and 24 hours after treatment, mice were euthanized and serum, liver, adipose, muscle and brain tissues were collected and analyzed to determine level of B4. Untreated mice were used as controls.

[14] = IP Injection (0.35 μmole/mouse), 3 hr
[15] = IP Injection (0.35 μmole/mouse), 6 hr
[16] = IP Injection (0.35 μmole/mouse), 24 hr
[17] = Oral Gavage (0.71 μmole/mouse), 3 hr
[18] = Oral Gavage (0.71 μmole/mouse), 6 hr
[19] = Oral Gavage (0.71 μmole/mouse), 24 hr

Drug Concentration, Adipose [13, 14]: 7.98 ± 3.82 µmol/kg
Drug Concentration, Blood [13, 14]: 1.91 ± 0.14 µM
Drug Concentration, Brain [13, 14]: 0.15 ± 0.04 µmol/kg
Drug Concentration, Liver [13, 14]: 7.05 ± 2.0 µmol/kg
Drug Concentration, Muscle [13, 14]: 1.7 ± 0.8 µmol/kg
Drug Concentration, Adipose [13, 15]: 2.45 ± 1.12 µmol/kg
Drug Concentration, Blood [13, 15]: 1.37 ± 0.12 µM
Drug Concentration, Brain [13, 15]: 0.09 ± 0.01 µmol/kg
Drug Concentration, Liver [13, 15]: 3.45 ± 1.49 µmol/kg
Drug Concentration, Muscle [13, 15]: 1.07 ± 0.8 µmol/kg
Drug Concentration, Adipose [13, 16]: 0.013 ± 0.006 µmol/kg
Drug Concentration, Blood [13, 16]: 0.0054 ± 0.002 µM
Drug Concentration, Brain [13, 16]: 0.0003 ± 0.0002 µmol/kg
Drug Concentration, Liver [13, 16]: 0.035 ± 0.016 µmol/kg
Drug Concentration, Muscle [13, 16]: 0.008 ± 0.002 µmol/kg
Drug Concentration, Adipose [13, 17]: 1.41 ± 0.002 µmol/kg
Drug Concentration, Blood [13, 17]: 1.24 ± 0.25 µM
Drug Concentration, Brain [13, 17]: 0.1 ± 0.04 µmol/kg
Drug Concentration, Liver [13, 17]: 8.93 ± 2.2 µmol/kg
Drug Concentration, Muscle [13, 17]: 1.33 ± 0.74 µmol/kg
Drug Concentration, Adipose [13, 18]: 1.38 ± 0.05 µmol/kg
Drug Concentration, Blood [13, 18]: 0.98 ± 0.5 µM
Drug Concentration, Brain [13, 18]: 0.09 ± 0.04 µmol/kg
Drug Concentration, Liver [13, 18]: 6.47 ± 2.3 µmol/kg
Drug Concentration, Muscle [13, 18]: 0.95 ± 0.45 µmol/kg
Drug Concentration, Adipose [13, 19]: 0.11 ± 0.05 µmol/kg
Drug Concentration, Blood [13, 19]: 0.0072 ± 0.002 µM
Drug Concentration, Brain [13, 19]: 0.0009 ± 0.0007 µmol/kg
Drug Concentration, Liver [13, 19]: 0.035 ± 0.013 µmol/kg
Drug Concentration, Muscle [13, 19]: 0.014 ± 0.018 µmol/kg
clearance from serum and tissues ([13]; male CD-1 mice, IP 5 mg/kg or oral gavage 10 mg/kg, after 24 hours): cleared from the serum and tissues
Compound: CC(C)Oc1cc(NC(=O)CSCC(=O)O)c(Cl)cc1Cl [Compound B4, 2-((2-((2,4-dichloro-5-isopropoxyphenyl)amino)-2-oxoethyl)thio)acetic acid]
TNBC cell growth, shC versus shF5 [1]: suppressed TNBC cell growth only in the cells highly expressing FABP5
levels of endogenous PPARδ targets PDPK1 and CD47 [2]: significantly lower
basal lipolysis (glycerol release) ([3]; basal): inhibited basal lipolysis
isoproterenol-stimulated lipolysis (glycerol release) ([3]; isoproterenol-stimulated, relative to basal): more potent
growth inhibition of TNBC lines by FABP5 level [4]: inhibited growth of only TNBC lines expressing high FABP5 levels
sensitization to chemotherapy [5]: sensitized to chemotherapy
uptake of lipids into hepatocytes (Nile Red) ([6]; B4 0.1 to 5 μM): prevented uptake of lipids into hepatocytes
size of the lipid droplets ([6]; B4 treated cells): significantly smaller droplets
activation of transcription by PPARγ [7]: did not activate transcription
activation of transcription by PPARδ [8]: did not active transcription
IL-1β mRNA level [9]: lower in the treated cells
IL-6 mRNA level [9]: lower in the treated cells
TNFα mRNA level [9]: lower in the treated cells
inhibition of PPARγ activity in cells overexpressing FABP4 [10]: inhibit activity of the nuclear receptors only in cells that express the binding proteins
levels of α-SMA following activation by TGF-β [11]: significantly lower than in untreated cells
inhibition of PPARδ activity in cells overexpressing FABP5 [12]: inhibit activity of the nuclear receptors only in cells that express the binding proteins
